pIC50: −log10 of the molar value.
Columns and labels:
[1] = target: T1, hTLR7 (Homo sapiens, UniProt Q9NYK1); test: TLR7 inhibition, R848-induced hTNFα in Daudi; format: cell-based
T1 construct: human B lymphoblasts (Daudi cells); endogenous in cells; host or cells: Daudi
Procedure: RAW 264.7 and differentiated THP-1 cells were seeded into 96-well plates at 2 × 10^4 cells per well, while Daudi cells were seeded at 5 × 10^4 cells per well. After stabilization for 30 min, cells were stimulated with specific TLR agonists for 4 or 24 h. Supernatants were diluted and transferred to precoated ELISA plates to measure TNF-α secretion using kits from Invitrogen. Optical absorbance was measured using a BioTek Synergy HTX multimode microplate reader, and data were interpolated using BioTek Gen5 software.
One-tailed paired Student’s t-tests were performed using Microsoft Excel (Microsoft). Semi-logarithmic conversions and nonregression curve analyses for calculating 50% lethal concentration (LC50) and 50% inhibitory concentration (IC50) values were conducted using GraphPad Prism 7.0 (GraphPad). The therapeutic index was calculated as […]. Animal experimental results are expressed as mean ± standard deviation and analyzed using SPSS v.20 (IBM SPSS Statistics). Homogeneity of variance was assessed using Levene’s test.
[…] Data are from at least three independent experiments (n = 3) and statistical differences between the induced case and other cases were analyzed and verified using a one-tailed Student’s t-test (*P < 0.05, **P < 0.01, ***P < 0.001).

[2] = test system: SLE in MRL/lpr mice; test: MRL/lpr mouse model of SLE; format: in vivo; conditions: 30 mg/kg oral daily for 39 days; for Anti-dsDNA antibodies / Antinuclear antibody (ANA) / IgG in the kidney: compared with HCQ 60 mg/kg; for Alopecia and skin rashes: compared with vehicle and HCQ
Procedure: MRL/MpJ-Fas^lpr/J lupus-prone mice were purchased from Jackson Laboratory to evaluate the effects of ETI41 and ETI60 on the pathophysiology of genetic SLE. This study was approved by the IACUC, Ajou University (approval no. 2019-0046). Fourteen-week-old mice were assigned to the following treatment groups: vehicle (n = 3), ETI60 (n = 3), ETI41 (n = 4) and HCQ (n = 3). These groups were administered daily oral doses of 30 mg/kg ETI41 or ETI60, or 60 mg/kg HCQ for 39 days. All compounds were dissolved in a vehicle comprising ethanol, polyethylene glycol (PEG400) and distilled water at a 1:4:5 ratio. The body weights of the mice were measured every 3 days. Mice were anesthetized in an induction chamber with a gas mixture of 4% isoflurane in 70:30 […] and O2, delivered at a flow rate of 0.8 l/min. Upon completion of the treatment period, paired axillary and popliteal lymph nodes were collected and weighed. Blood samples were taken and maintained in BD Microtainer SST tubes (BD Biosciences), with serum isolated through centrifugation at 3,393g for 30 min at 4 °C. Serum markers, including complement component C3, ANA, anti-dsDNA and total IgG, were evaluated using ELISA kits (MyBioSource). Renal IgG levels were monitored by western blotting using anti-mouse IgG (Thermo Fisher Scientific) and β-actin antibodies (Bethyl Laboratories). Statistical significance among groups was analyzed using IBM SPSS Statistics (v.25.0; IBM Corporation), with statistical significance set at P < 0.05.
Fig. 5 Therapeutic efficacy of ETI41 and ETI60 in SLE mouse model. a Summary of the experimental validation of ETI41 and ETI60 in the MRL/lpr female mouse model of SLE. […] Statistical differences between the induced case and other cases were analyzed and verified using a one-tailed Student’s t-test (*P < 0.05, **P < 0.01, ***P < 0.001).

T1 sequence (Q9NYK1 27-1049): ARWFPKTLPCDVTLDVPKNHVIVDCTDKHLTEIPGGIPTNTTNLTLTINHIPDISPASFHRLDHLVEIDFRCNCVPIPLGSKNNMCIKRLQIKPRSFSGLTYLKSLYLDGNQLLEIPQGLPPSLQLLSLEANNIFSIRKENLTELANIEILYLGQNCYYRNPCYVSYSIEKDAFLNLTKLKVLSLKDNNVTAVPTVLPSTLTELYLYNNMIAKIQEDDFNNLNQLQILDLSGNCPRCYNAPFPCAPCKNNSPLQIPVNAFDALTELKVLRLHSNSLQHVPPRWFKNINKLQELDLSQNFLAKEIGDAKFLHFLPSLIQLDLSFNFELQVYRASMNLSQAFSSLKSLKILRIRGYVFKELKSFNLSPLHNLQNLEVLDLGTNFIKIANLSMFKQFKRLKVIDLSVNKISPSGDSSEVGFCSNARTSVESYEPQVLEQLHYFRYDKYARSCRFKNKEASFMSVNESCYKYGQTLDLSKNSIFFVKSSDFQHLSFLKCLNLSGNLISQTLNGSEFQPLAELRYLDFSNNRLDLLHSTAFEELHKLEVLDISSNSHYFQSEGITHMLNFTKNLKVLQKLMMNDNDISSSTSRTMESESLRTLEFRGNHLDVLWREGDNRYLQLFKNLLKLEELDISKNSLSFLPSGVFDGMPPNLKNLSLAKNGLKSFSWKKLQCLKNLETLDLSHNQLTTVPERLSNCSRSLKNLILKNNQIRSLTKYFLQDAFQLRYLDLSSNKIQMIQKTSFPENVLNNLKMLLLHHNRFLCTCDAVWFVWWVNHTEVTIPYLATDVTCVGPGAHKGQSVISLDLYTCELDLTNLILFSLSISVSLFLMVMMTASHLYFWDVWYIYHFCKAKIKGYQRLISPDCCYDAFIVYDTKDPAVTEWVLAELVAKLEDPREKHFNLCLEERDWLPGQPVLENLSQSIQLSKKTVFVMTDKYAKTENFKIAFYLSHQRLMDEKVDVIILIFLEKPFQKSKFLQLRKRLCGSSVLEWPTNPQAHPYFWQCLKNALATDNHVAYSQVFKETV

Compound | pIC50 [1] | Body weight [2] | Lymph node weights [2] | Anti-dsDNA antibodies [2] | Antinuclear antibody (ANA) [2] | IgG in the kidney [2] | Alopecia and skin rashes [2] | Complement C3 levels ([2]; serum)
Cc1cc2c(N)c3c(nc2n1CCCN(C)C)CCCCCC3 [ETI41] | 6.02 | prevented weight gain or loss | notably lower | reduced | reduced | reduced | substantially reduced | 
COc1ccc2c3c(N)c4c(nc3n(CCCN(C)C)c2c1)CCCC4 [ETI60] | 6.18 | prevented weight gain or loss | notably lower | reduced | reduced | reduced | substantially reduced | increased
